Laboratory results published in article PMC10914731, “Homo-BacPROTAC-induced degradation of ClpC1 as a strategy against drug-resistant mycobacteria” (Nature Communications, 2024).
Converted amounts (≈) assume the structure as drawn. “And” between values parts separate entries of the source, which are not always exact repeats. Equal values may be shown once. Read-outs that look alike come from different tables or passages of the source.

Tests used:
[1] = molecular target: ClpC1 NTD protein (M. tuberculosis) (Mycobacterium tuberculosis, UniProt P9WPC9); test: biochemical; assay type: binding
Chain of ClpC1 NTD protein (M. tuberculosis) (P9WPC9 1-156, looked up, natural form): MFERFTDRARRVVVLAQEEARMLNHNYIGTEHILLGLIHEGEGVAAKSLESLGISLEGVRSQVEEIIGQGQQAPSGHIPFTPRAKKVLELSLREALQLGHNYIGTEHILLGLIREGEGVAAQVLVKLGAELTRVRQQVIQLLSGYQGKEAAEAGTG

[2] = assay type: in vitro ADME, Mice
Summary of the method: (§1)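 Compound at 1 µmol/l incubated with 0.5 mg/ml liver microsomes in 100 mM Tris-HCl pH 7.5, 6.5 mM MgCl2, 1 mM NADPH, 37 °C; acetonitrile-quenched at multiple time points, measured by HPLC-MS/MS. First-order half-lives converted to clearance as %Qh via well-stirred liver model.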

[3] = assay type: in vitro ADME, Rat
Summary of the method: as §1

[4] = Microsomal stability, human; assay type: in vitro ADME
Summary of the method: as §1

[5] = system: M. tuberculosis H37Rv (ATCC 27294); test: microbe, parasite or virus in culture; assay type: cell-based
Msm 607 = test: microbe, parasite or virus in culture; assay type: cell-based
[6] = system: Mtb H37Rv in THP-1 macrophages; test: Intracellular MIC assay in THP-1 macrophages; assay type: cell-based, Mycobacterium tuberculosis; set-up: Emax: unit not given here
[7] = molecular target: His6-tagged ClpC1-NTD substrate, M. smegmatis ClpC1P1P2 (UniProt A0R574+P9WPC9); test: biochemical; assay type: biochemical
Chain of His6-tagged ClpC1-NTD substrate, M. smegmatis ClpC1P1P2 (P9WPC9 1-156, looked up, natural form): as above
Chain of His6-tagged ClpC1-NTD substrate, M. smegmatis ClpC1P1P2 (A0R574 whole entry): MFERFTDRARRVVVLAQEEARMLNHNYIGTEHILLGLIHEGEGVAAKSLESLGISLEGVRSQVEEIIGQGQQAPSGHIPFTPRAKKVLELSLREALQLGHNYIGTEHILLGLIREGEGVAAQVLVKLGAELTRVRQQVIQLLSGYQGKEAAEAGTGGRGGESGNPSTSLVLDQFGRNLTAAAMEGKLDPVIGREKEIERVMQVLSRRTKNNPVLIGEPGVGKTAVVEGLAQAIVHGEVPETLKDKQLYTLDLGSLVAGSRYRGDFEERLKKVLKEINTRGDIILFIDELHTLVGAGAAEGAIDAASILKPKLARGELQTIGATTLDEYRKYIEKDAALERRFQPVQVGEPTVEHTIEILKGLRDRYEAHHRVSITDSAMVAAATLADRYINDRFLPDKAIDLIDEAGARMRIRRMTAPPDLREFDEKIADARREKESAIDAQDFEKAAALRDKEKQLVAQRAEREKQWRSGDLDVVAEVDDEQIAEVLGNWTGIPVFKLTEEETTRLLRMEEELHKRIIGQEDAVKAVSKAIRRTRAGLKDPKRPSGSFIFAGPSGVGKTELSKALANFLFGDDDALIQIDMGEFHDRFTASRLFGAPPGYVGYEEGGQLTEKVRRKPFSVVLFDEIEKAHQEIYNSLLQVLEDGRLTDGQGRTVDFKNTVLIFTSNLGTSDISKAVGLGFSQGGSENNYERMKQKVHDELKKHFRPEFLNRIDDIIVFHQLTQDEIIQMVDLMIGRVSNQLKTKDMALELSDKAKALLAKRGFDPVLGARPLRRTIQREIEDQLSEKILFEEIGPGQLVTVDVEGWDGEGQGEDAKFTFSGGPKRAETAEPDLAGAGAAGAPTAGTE

[8] = molecular target: ClpC1-NTD substrate, M. tuberculosis ClpC1P1P2 (Mycobacterium tuberculosis, UniProt P9WPC9); test: biochemical; assay type: biochemical
Chain of ClpC1-NTD substrate, M. tuberculosis ClpC1P1P2 (P9WPC5 whole entry): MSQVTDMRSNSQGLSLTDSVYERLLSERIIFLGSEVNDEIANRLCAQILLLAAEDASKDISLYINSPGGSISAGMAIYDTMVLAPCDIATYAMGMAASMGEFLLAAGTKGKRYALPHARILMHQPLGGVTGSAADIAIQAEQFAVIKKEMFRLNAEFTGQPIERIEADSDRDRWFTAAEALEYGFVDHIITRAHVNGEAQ
Chain of ClpC1-NTD substrate, M. tuberculosis ClpC1P1P2 (P9WPC9 whole entry): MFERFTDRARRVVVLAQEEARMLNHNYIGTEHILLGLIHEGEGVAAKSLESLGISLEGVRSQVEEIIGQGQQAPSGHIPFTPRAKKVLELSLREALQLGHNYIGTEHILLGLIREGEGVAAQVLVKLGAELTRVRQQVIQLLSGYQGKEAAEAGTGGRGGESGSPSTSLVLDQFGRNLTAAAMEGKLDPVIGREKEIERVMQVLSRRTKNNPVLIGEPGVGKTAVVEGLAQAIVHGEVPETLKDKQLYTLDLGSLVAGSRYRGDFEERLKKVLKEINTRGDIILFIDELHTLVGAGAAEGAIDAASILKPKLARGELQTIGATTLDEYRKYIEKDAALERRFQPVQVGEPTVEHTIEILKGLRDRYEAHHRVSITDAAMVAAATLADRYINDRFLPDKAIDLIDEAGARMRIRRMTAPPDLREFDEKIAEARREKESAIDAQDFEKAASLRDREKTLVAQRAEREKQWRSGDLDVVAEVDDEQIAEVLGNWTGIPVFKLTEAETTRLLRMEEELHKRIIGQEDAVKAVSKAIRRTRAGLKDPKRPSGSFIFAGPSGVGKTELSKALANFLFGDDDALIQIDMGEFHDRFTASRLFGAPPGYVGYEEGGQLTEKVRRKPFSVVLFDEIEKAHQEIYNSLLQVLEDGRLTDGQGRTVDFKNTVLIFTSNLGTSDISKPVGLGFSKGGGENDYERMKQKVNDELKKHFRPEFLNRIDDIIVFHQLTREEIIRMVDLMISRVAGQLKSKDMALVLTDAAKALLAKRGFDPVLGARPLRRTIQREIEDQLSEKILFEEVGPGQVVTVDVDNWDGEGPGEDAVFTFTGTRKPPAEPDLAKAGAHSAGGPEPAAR
Chain of ClpC1-NTD substrate, M. tuberculosis ClpC1P1P2 (P9WPC3 whole entry, further chain): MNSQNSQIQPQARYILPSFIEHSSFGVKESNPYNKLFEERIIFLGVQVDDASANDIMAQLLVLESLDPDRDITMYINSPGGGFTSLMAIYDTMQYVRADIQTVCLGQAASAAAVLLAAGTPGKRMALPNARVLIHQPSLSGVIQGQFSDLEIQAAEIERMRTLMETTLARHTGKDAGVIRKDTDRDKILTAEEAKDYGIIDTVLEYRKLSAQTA

[9] = molecular target: endogenous ClpC1 in Msm #607 cells (Mycolicibacterium smegmatis, UniProt A0R574); assay type: cell-based, M. smegmatis
Chain of endogenous ClpC1 in Msm #607 cells (A0R574 whole entry): as the sequence (A0R574 whole entry) above

[10] = read-out: DC50, single measurements

Structure (SMILES): CO[C@H](c1ccccc1)[C@@H]1NC(=O)[C@H](C)NC(=O)[C@H](C[C@@H](C)CO)N(C)C(=O)[C@H](Cc2cn(Cc3cn(CCOCCOCCOCCn4cc(Cn5cc(C[C@@H]6NC(=O)[C@H](C(C)C)NC(=O)[C@H](CC(C)C)N(C)C(=O)[C@H](C(C)C)NC(=O)[C@H]([C@H](OC)c7ccccc7)NC(=O)[C@H](C)NC(=O)[C@H](C[C@@H](C)CO)N(C)C6=O)c6ccccc65)nn4)nn3)c3ccccc23)NC(=O)[C@H](C(C)C)NC(=O)[C@H](CC(C)C)N(C)C(=O)[C@H](C(C)C)NC1=O [Compound 7]
- Kd ([1]; SPR (Supplementary Table 1), read-out: KD ClpC1-NTD Mean ± SD): 0.46 ± 0.05 nM
- koff ([1]; SPR dissociation rate constant, read-out: koff ClpC1-NTD Mean ± SD): 0.001 s⁻¹
- koff ClpC1-NTD ([1]; SPR, single independent measurements): 0.001 s⁻¹ and 0.0008 s⁻¹ and 0.0006 s⁻¹
- Kd ([1]; SPR, single independent measurements, read-out: KD ClpC1-NTD): 0.473 nM and 0.459 nM and 0.508 nM and 0.398 nM
- koff ([1]; SPR, single independent measurements, read-out: koff ClpC1-NTD): 0.001 s⁻¹
- Microsomal Stability Mouse QH ([2]; Mouse): 58.9% and 48.2%
- Microsomal Stability Mice ([2]; clearance in microsomes): 53 %Qh
- Microsomal Stability Rat QH ([3]; Rat): 41.7% and 36.7%
- Microsomal Stability Rat ([3]; clearance in microsomes): 40 %Qh
- Microsomal Stability Human QH ([4]; Human): > 88.4% and 86.5%
- Microsomal Stability Human ([4]; clearance in microsomes): 88 %Qh
- MIC ([5]; Mycobacterium tuberculosis, Mtb H37Rv (Supplementary Table 2), read-out: MIC Mtb): 0.1 µM (≈ 0.213 µg/mL)
- MIC ([5]; Mycobacterium tuberculosis, single determinations, read-out: Mtb MIC): 0.098 µM (≈ 0.208 µg/mL)
- MIC ([5]; single determinations, read-out: Mtb MIC): 0.156 µM (≈ 0.332 µg/mL)
- MIC (Msm 607; Mycolicibacterium smegmatis, 607, read-out: MIC Msm 607): 1.4 ± 0.2 µM (≈ 2.98 µg/mL)
- MIC (Msm 607; Mycolicibacterium smegmatis, 607, read-out: Msm 607 MIC, single determinations): 1.56 µM (≈ 3.32 µg/mL)
- Msm 607 MIC (Msm 607; single determinations): 1.250 µM
- Emax [6]: 1.22
- intracellular viable mycobacteria ([6]; 0.19µM, Day 4, well replicates): 5.34 log10 cfu/ml
- intracellular viable mycobacteria ([6]; 0.19µM, Day 7, well replicates): 5.68 log10 cfu/ml
- intracellular viable mycobacteria ([6]; 0.781µM, Day 4, well replicates): 4.98 log10 cfu/ml
- intracellular viable mycobacteria ([6]; 0.781µM, Day 7, well replicates): 4.98 log10 cfu/ml
- intracellular viable mycobacteria ([6]; 3.125µM, Day 4, well replicates): 4.75 log10 cfu/ml
- intracellular viable mycobacteria ([6]; 3.125µM, Day 7, well replicates): 4.56 log10 cfu/ml
- intracellular viable mycobacteria ([6]; 50µM, Day 4, well replicates): 4.39 log10 cfu/ml and 4.51 log10 cfu/ml
- intracellular viable mycobacteria ([6]; 50µM, Day 7, well replicates): 3.96 log10 cfu/ml

Structure (SMILES): CO[C@@H](c1ccccc1)[C@H]1NC(=O)[C@@H](C)NC(=O)[C@@H](C[C@H](C)CO)N(C)C(=O)[C@@H](Cc2cn(C)c3ccccc23)NC(=O)[C@@H](Cc2cn(CCCCCn3cc(C[C@H]4NC(=O)[C@@H](CC(C)C)N(C)C(=O)[C@@H](C(C)C)NC(=O)[C@@H]([C@@H](OC)c5ccccc5)NC(=O)[C@@H](C)NC(=O)[C@@H](C[C@H](C)CO)N(C)C(=O)[C@@H](Cc5cn(C)c6ccccc56)NC4=O)nn3)nn2)NC(=O)[C@@H](CC(C)C)N(C)C(=O)[C@@H](C(C)C)NC1=O [Compound 12a]
- degradation of the His6-tagged ClpC1-NTD substrate [7]: did not cause any degradation
- DC50 ([7]; read-out: DC50, Mean): > 100 µM
- DC50 [7, 10]: > 100 µM
- DC50 ([8]; read-out: DC50, Mean): > 100 µM
- DC50 [8, 10]: > 100 µM
- intracellular degradation of ClpC1 [9]: inactive
